The results in this text go back to ChEMBL document CHEMBL3352461, “Discovery and optimization of 5-fluoro-4,6-dialkoxypyrimidine GPR119 agonists” (Bioorg Med Chem Lett, 2014).

In data set [1] the target is T1, Glucose-dependent insulinotropic receptor (Homo sapiens) (UniProt Q8TDV5).
T1 sequence (whole entry): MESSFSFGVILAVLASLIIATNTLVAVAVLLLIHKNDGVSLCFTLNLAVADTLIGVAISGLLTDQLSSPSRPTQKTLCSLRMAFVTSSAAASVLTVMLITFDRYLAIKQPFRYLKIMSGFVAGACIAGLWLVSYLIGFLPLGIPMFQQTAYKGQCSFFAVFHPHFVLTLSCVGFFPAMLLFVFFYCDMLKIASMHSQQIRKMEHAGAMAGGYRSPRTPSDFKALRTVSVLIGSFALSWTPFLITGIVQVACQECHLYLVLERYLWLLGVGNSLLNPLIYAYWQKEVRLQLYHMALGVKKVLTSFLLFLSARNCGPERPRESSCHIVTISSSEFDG
As to the kind of experiment: […] of human GPR119 activity by homogeneous time resolved fluorescence cyclase (cAMP) assay relative to AR231453. It is filed as functional.

The target in data set [2] is T2, Glucose-dependent insulinotropic receptor (Rattus norvegicus) (UniProt Q7TQN8).
T2 sequence (whole entry): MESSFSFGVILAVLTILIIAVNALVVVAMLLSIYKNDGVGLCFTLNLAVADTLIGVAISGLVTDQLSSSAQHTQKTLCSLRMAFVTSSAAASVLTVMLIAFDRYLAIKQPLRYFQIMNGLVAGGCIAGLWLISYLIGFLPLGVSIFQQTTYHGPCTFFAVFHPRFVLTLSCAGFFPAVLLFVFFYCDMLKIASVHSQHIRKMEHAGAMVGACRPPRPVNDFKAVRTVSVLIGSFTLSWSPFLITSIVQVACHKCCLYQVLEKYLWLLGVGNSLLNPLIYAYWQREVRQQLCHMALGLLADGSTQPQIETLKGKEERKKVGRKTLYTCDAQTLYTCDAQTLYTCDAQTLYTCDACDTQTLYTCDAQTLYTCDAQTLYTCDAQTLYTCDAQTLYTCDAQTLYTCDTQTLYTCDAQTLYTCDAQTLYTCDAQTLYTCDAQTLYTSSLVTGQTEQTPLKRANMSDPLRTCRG
Put plainly: […] of rat GPR119 activity by homogeneous time resolved fluorescence cyclase (cAMP) assay relative to AR231453. It is filed as functional.

The target of a further data set is Cytochrome P450 2C9 (Homo sapiens, UniProt P11712). As to the kind of experiment: Inhibition of CYP2C9 (unknown origin). Format: ADME.
Cytochrome P450 2C9, sequence (P11712 whole entry): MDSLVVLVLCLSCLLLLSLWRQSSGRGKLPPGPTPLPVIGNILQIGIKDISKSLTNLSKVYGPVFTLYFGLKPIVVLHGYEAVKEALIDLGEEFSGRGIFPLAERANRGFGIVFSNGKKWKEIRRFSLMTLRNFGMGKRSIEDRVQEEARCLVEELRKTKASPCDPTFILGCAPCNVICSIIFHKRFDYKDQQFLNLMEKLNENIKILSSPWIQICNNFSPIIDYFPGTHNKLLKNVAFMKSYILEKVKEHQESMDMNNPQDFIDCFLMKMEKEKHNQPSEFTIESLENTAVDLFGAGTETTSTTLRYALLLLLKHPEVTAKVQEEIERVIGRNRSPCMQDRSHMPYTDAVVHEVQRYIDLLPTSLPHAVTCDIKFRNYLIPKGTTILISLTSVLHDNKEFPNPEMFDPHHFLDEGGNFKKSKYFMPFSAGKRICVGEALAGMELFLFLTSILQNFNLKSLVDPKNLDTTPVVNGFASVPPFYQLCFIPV
In data set [3] the test system is Rattus norvegicus. As to the kind of experiment: Reduction in plasma glucose level in Zucker diabetic fatty rat at 3 mg/kg, po administered 30 mins prior to challenge measured in 20 mins interval for 120 mins by oral glucose tolerance test relative to vehicle-treated control. It is filed as functional. On the set-up: scale not given: the % may be the effect or the level left.

The target of data set [4] is T3, Glucose-dependent insulinotropic receptor (Homo sapiens, UniProt Q8TDV5).
T3 sequence (Q8TDV5 whole entry): T1 sequence (whole entry)
As to the kind of experiment: […] of human GPR119 activity by homogeneous time resolved fluorescence cyclase (cAMP) assay. It is filed as functional.

Data set [5] addresses T4, Glucose-dependent insulinotropic receptor (Rattus norvegicus, UniProt Q7TQN8).
T4 sequence (Q7TQN8 whole entry): T2 sequence (whole entry)
Put plainly: […] of rat GPR119 activity by homogeneous time resolved fluorescence cyclase (cAMP) assay. Format: functional.

The nature of data set [6]: Elimination half life in Sprague-Dawley rat at 2 mg/kg, po. Format: ADME, organism-based. On the set-up: dose 2 mg/kg, route oral. The conditions noted are these: in vivo, read-out: beta t1/2 (converted).
Data set [7] relates to Rattus norvegicus. As to the kind of experiment: Reduction in plasma glucose level in Zucker diabetic fatty rat at 10 to 30 mg/kg, po administered 30 mins prior to challenge measured in 20 mins interval for 120 mins by oral glucose tolerance test relative to vehicle-treated control. Format: functional. On the set-up: scale not given: the % may be the effect or the level left. The conditions noted are these: dose mg/kg 10-30.

In data set [8] the test system is Rattus norvegicus. As to the kind of experiment: Reduction in plasma glucose level in Zucker diabetic fatty rat at 10 to 30 mg/kg, po administered 30 mins prior to challenge measured in 20 mins interval for 120 mins by oral glucose tolerance test relative to vehicle-treated control in presence of sitagliptin. It is filed as functional. On the set-up: scale not given: the % may be the effect or the level left. The conditions noted are these: dose mg/kg 10-30.

The target in another data set is Cytochrome P450 2D6 (Homo sapiens, UniProt P10635). Put plainly: Inhibition of CYP2D6 (unknown origin). It is filed as ADME.
Cytochrome P450 2D6, sequence (P10635 whole entry): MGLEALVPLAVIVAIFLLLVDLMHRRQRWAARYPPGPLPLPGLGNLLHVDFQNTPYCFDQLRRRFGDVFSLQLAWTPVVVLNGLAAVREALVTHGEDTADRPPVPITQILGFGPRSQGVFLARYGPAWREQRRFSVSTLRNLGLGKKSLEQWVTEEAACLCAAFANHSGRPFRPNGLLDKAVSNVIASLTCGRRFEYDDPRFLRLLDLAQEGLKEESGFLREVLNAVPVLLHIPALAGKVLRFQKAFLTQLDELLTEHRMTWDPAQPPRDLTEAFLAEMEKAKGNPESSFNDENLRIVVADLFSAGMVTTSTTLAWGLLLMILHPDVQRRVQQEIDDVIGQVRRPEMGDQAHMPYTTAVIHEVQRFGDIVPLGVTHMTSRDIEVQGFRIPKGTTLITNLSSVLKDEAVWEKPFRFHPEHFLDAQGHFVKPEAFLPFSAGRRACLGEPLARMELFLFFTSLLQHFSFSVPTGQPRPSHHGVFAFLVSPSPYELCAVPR
Data set [9] can be described thus: Efflux ratio of permeability in human Caco2 cells. Format: ADME, cell-based. The conditions noted are these: Caco-2.
The next data set deals with Cytochrome P450 3A4 (Homo sapiens, UniProt P08684). Put plainly: Inhibition of CYP3A4 (unknown origin). Format: ADME.
Cytochrome P450 3A4, sequence (P08684 whole entry): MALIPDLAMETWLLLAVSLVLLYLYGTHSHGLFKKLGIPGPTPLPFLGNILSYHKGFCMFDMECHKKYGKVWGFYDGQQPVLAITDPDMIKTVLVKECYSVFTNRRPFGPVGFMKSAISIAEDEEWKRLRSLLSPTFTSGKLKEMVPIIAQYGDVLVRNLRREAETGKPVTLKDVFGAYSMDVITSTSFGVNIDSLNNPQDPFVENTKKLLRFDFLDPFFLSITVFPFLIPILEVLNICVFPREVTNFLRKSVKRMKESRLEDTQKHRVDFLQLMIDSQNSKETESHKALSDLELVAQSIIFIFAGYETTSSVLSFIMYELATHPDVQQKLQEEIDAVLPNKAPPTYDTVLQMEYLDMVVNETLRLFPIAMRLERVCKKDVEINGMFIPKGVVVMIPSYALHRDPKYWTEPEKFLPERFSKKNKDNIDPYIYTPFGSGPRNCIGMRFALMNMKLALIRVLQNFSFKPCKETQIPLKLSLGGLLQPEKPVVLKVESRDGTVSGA
The target in the next data set is T5, Cytochrome P450 1A2 (Homo sapiens, UniProt P05177).
T5 sequence (P05177 whole entry): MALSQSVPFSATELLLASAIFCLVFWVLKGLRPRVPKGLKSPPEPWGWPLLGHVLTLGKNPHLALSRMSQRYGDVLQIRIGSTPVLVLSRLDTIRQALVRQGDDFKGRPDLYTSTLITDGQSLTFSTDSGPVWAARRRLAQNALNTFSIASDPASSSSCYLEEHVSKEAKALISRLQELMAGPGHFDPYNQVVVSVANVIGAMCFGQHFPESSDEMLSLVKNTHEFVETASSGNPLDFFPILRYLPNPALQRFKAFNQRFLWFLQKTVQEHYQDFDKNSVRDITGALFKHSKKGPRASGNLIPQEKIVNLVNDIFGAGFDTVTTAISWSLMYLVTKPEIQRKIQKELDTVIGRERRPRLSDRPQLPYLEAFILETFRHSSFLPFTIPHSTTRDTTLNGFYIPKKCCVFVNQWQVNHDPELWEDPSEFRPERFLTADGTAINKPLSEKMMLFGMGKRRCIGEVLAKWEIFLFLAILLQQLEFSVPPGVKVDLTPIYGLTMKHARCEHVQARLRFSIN
As to the kind of experiment: Inhibition of CYP1A2 (unknown origin). It is filed as ADME.

The test system of data set [10] is Rattus norvegicus. As to the kind of experiment: AUClast in Sprague-Dawley rat at 2 mg/kg, iv and po. It is filed as ADME, organism-based, Plasma. On the set-up: dose 2 mg/kg, route oral. The conditions noted are these: in vivo.
The next data set addresses CYP2C9 (Homo sapiens, UniProt P11712). As to the kind of experiment: Ratio of APD597 IC50 to compound IC50 for CYP2C9 (unknown origin). It is filed as ADME. Particulars: read-out: Ratio IC50.
Data set [11] deals with Mus musculus. As to the kind of experiment: Increase in GIP release in normoglycemic 129SVE mouse at 3 to 10 mg/kg, po measured after 45 mins. Format: functional, organism-based.
Data set [12] can be described thus: Stability in human hepatocytes assessed as compound remaining after 90 mins. It is filed as ADME, cell-based, Hepatocyte. The conditions noted are these: read-out: Stability.
Data set [13] in a line: Stability in dog hepatocytes assessed as compound remaining after 90 mins. Format: ADME, cell-based, Canis lupus familiaris, Hepatocyte. The conditions noted are these: read-out: Stability.
A short description of data set [14]: Stability in monkey hepatocytes assessed as compound remaining after 90 mins. It is filed as ADME, cell-based, Macaca mulatta, Hepatocyte. Particulars: rhesus monkey, read-out: Stability.
For data set [15], the system named is Rattus norvegicus. As to the kind of experiment: Volume of distribution at steady state in Sprague-Dawley rat at 2 mg/kg, iv and po. On the set-up: dose 2 mg/kg, route oral. The conditions noted are these: in vivo. Format: ADME, organism-based.
Data set [16] relates to Mus musculus. Put plainly: Reduction in plasma glucose level in normoglycemic 129SVE mouse at 3 to 10 mg/kg, po administered 30 mins prior to challenge measured in 20 mins interval for 120 mins by oral glucose tolerance test relative to vehicle-treated control. Format: functional. On the set-up: scale not given: the % may be the effect or the level left. The conditions noted are these: dose mg/kg 3-10.

For another data set, the target named is Cytochrome P450 2C19 (Homo sapiens, UniProt P33261). As to the kind of experiment: Inhibition of CYP2C19 (unknown origin). It is filed as ADME.
Cytochrome P450 2C19, sequence (P33261 whole entry): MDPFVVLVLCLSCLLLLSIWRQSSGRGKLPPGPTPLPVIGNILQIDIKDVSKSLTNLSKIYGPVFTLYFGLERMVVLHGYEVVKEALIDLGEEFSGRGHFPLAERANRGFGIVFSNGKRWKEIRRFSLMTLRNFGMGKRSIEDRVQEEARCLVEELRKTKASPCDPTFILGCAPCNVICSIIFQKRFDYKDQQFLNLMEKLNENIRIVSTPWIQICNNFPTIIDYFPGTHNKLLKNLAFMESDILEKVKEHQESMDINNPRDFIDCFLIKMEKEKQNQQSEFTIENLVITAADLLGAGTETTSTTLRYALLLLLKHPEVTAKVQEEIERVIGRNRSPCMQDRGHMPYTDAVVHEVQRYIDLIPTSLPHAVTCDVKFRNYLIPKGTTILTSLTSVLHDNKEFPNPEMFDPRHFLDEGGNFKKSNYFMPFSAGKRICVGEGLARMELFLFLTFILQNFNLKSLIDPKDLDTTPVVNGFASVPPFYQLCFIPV
The nature of data set [17]: Stability in rat hepatocytes assessed as compound remaining after 90 mins. It is filed as ADME, cell-based, Hepatocyte. Particulars: read-out: Stability.
Data set [18] concerns Rattus norvegicus. As to the kind of experiment: Clearance in Sprague-Dawley rat at 2 mg/kg, iv and po. It is filed as ADME, organism-based. On the set-up: dose 2 mg/kg, route oral. Particulars: in vivo.
Data set [19] concerns Rattus norvegicus. As to the kind of experiment: Bioavailability in Sprague-Dawley rat at 2 mg/kg, iv and po. Particulars: in vivo. It is filed as ADME, organism-based.

pEC50, pIC50: −log10 of the molar value. Activity calls are given as the source filed them. The rule behind the calls is not given here. Bounds are passed on as bounds.

CYP2C9, sequence (P11712 whole entry): as the sequence (P11712 whole entry) above

In the case of `COc1c(Nc2ccc(S(C)(=O)=O)nc2C)ncnc1OC1CCN(C(=O)OC(C)C)CC1` [ADP-597], the results for the Efficacy in data set [1] and in data set [2] were 75% and 89%, respectively. Also, the pIC50 at Cytochrome P450 2C9 was 5.24.

Molecule `N[C@@H](CC(=O)N1CCn2c(nnc2C(F)(F)F)C1)Cc1cc(F)c(F)cc1F` [SITAGLIPTIN] had an Activity in the data set on Rattus norvegicus [3] of 70%.

For `Cc1nc(S(C)(=O)=O)ccc1Oc1ncnc(OC2CCN(C(=O)OC(C)C)CC2)c1F`, the Efficacy in data set [1] turned out to be 75%; in [2] it was 77%. For the same molecule, the pIC50 against Cytochrome P450 2C9 is less than 4.30. Further, the pEC50 in [4] was 7.68; in data set [5], 6.85.

On to `Cc1nc(S(C)(=O)=O)ccc1Oc1ncnc(OC2CCN(C(=O)OC3(C)CC3)CC2)c1F`, for which, in data set [6], the half-life is 2.71 h. Also, the Activity in the data set on Rattus norvegicus [7] was 50%; with Rattus norvegicus [8], 70%; in the data set on Mus musculus [16], 35%. In addition, the “inhibition (INH)” value against Cytochrome P450 2D6, against Cytochrome P450 3A4 and against Cytochrome P450 1A2 was “Not Active” each time. Besides, the efflux ratio in data set [9] is 1. In the data set with Rattus norvegicus [10], this molecule showed an AUClast of 1220 ng·h/mL. Besides, the selectivity ratio at CYP2C9 worked out at 4. Moreover, the Efficacy amounted to 94% in data set [1] and 93% in data set [2]. Also, the result in the data set with Mus musculus [11] was Active. Besides, the remaining at 1.5 h in [12] worked out at 100%; in data set [13] it was 89%; in data set [14] it was 50%; in [17], 51%. Moreover, the results for the pIC50 against Cytochrome P450 2C9 and against Cytochrome P450 2C19 were 4.59 and 4.63, respectively. The Vdss in the data set with Rattus norvegicus [15] is 2.91 L/kg. Further, the figures for the pEC50 in data set [4] and in data set [5] were 7.86 and 6.77, respectively. In the data set on Rattus norvegicus [18], this molecule registered a CL of 19.8 mL/min/kg. This molecule also displayed a F in the data set with Rattus norvegicus [19] of 72.7%.

Regarding `Cc1nc(S(C)(=O)=O)ccc1Nc1ncnc(OC2CCN(C(=O)OC(C)C)CC2)c1F`, the Efficacy in [1] turned out to be 77%; in [2] it was 85%. The pIC50 on Cytochrome P450 2C9 was 5.26. Besides, the pEC50 in data set [4] is 6.88; in [5], 6.58.

In the case of `Cc1nc(S(C)(=O)=O)ccc1Oc1ncnc(OC2CCN(C(=O)OC(C)(C)C(F)(F)F)CC2)c1F`, the Efficacy in [1] was 36%; in data set [2] it was 79%. Also, the pEC50 in [4] was 8.19; in data set [5] it was 7.33.

Turning to `Cc1nc(S(C)(=O)=O)ccc1Oc1ncnc(OC2CCN(C(=O)O[C@H](C)CF)CC2)c1F`, the Efficacy came to 59% in [1] and 79% in [2]. For the same molecule, the negative-log EC50 (pEC50) is 6.71 in data set [4] and 5.82 in data set [5].

The term pIC50 denotes the negative decadic logarithm of the IC50, by convention in mol/L. As a reminder, the pEC50 is the negative decadic logarithm of the EC50, by convention in mol/L. By efflux ratio is commonly meant the permeability from basolateral to apical divided by that in the opposite direction, in the common usage.
